# Experimental data from US8304447B2, “2-acylaminopropoanol-type glucosylceramide synthase inhibitors” (Genzyme Corporation, priority 2007, dated 2012).
# Tested on: GM3
# Test: GM3 Elisa assay
# Assay type: cell-based
# Conditions: 48 h, Table 1; B16-FO cells, 2 days incubation; read-out: IC50_uM_Mean
# Procedure, shortened: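 Murine B16-FO melanoma cells attached 6 h on collagen, then exposed to compounds for 2 days at 37 °C. After formaldehyde fixation, cell-surface GM3 (NeuAc) was detected by anti-GM3 IgM and peroxidase anti-mouse IgM with Quantablu fluorescence (Ex 325/Em 420).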
row,Compound,IC50
1,"O=C(CCCC(=O)c1ccccc1)N[C@H](CN1CCCC1)[C@H](O)c1ccc2c(c1)OCCO2 [Compound 113, N-((1R,2R)-1-(2,3-dihydrobenzo[β][1,4]dioxin-6-yl)-1-hydroxy-3-(pyrrolidin-1-yl)propan-2-yl)-5-oxo-5-phenylpentanamide]",100 to 1000 nM
2,"CCOc1ccc(C(=O)CCC(=O)N[C@H](CN2CCCC2)[C@H](O)c2ccc3c(c2)OCCO3)cc1 [Compound 127, N-((1R,2R)-1-(2,3-dihydrobenzo[b][1,4]dioxin-6-yl)-1-hydroxy-3-(pyrrolidin-1-yl)propan-2-yl)-4-(4-ethoxyphenyl)-4-oxobutanamide]",100 to 1000 nM
3,"O=C(N[C@H](CN1CCCC1)[C@H](O)c1ccc2c(c1)OCCO2)C(=O)c1ccccc1 [Compound 31, N-((1R,2R)-1-(2,3-dihydrobenzoall [1,4]dioxin-6-yl)-1-hydroxy-3-(pyrrolidin-1-yl)propan-2-yl)-2-oxo-2-phenylacetamide]",100 to 1000 nM
4,"COc1ccc(C(=O)CCCCC(=O)N[C@H](CN2CCCC2)[C@H](O)c2ccc3c(c2)OCCO3)cc1 [Compound 141, N-((1R,2R)-1-(2,3-dihydrobenzo[β][1,4]dioxin-6-yl)-1-hydroxy-3-(pyrrolidin-1-yl)propan-2-yl)-6-(4-methoxyphenyl)-6-oxohexanamide]",≤ 100 nM
5,"C[C@H](NC(=O)N[C@H](CN1CCCC1)[C@H](O)c1ccc2c(c1)OCCO2)c1ccccc1 [Compound 10, 1-((1R,2R)-1-(2,3-dihydrobenzo[β][1,4]dioxin-6-yl)-1-hydroxy-3-(pyrrolidin-1-yl)propan-2-yl)-3-((S)-1-phenylethyl)urea]",100 to 1000 nM
6,"O=C(CCCCNC(=O)c1ccccc1)N[C@H](CN1CCCC1)[C@H](O)c1ccc2c(c1)OCCO2 [Compound 104, N-(5-((1R,2R)-1-(2,3-dihydrobenzo[β][1,4]dioxin-6-yl)-1-hydroxy-3-(pyrrolidin-1-yl)propan-2-ylamino)-5-oxopentyl)benzamide]",100 to 1000 nM
7,"O=C(Cc1ccc(OC(F)(F)F)cc1)N[C@H](CN1CCCC1)[C@H](O)c1ccc2c(c1)OCCO2 [Compound 103, N-((1R,2R)-1-(2,3-dihydrobenzo[β][1,4]dioxin-6-yl)-1-hydroxy-3-(pyrrolidin-1-yl)propan-2-yl)-2-(4-(trifluoromethoxy)phenyl)acetamide]",≤ 100 nM
8,"O=C(Cc1ccc(Oc2ccccc2)cc1)N[C@H](CN1CCCC1)[C@H](O)c1ccc2c(c1)OCCO2 [Compound 24, N-((1R,2R)-1-(2,3-dihydrobenzo[β][1,4]dioxin-6-yl)-1-hydroxy-3-(pyrrolidin-1-yl)propan-2-yl)-2-(4-phenoxyphenyl)acetamide]",100 to 1000 nM

# Same assay, conditions: 48 h, Table 2; B16-FO cells, 2 days incubation; read-out: IC50_uM_Mean
row,Compound,IC50
1,"COc1ccc([C@@H](O)[C@@H](CN2CCCC2)NC(=O)CCCC(=O)c2ccc(OC(C)C)cc2)cc1 [Compound 270, 5-(4-Isopropoxy-phenyl)-5-oxo-pentanoic acid [2-hydroxy-2-(4-methoxy-phenyl)-1-pyrrolidin-1-ylmethyl-ethyl]amide]",≤ 100 nM
2,"Cc1ccc(C(=O)CCCC(=O)N[C@H](CN2CCCC2)[C@H](O)c2ccc3c(c2)OCCO3)cc1 [Compound 283, N-((1R,2R)-1-(2,3-dihydrobenzo[b][1,4]dioxin-6-yl)-1-hydroxy-3-(pyrrolidin-1-yl)propan-2-yl)-5-oxo-5-p-tolylpentanamide]",≤ 100 nM
3,COc1ccc(OCCC(=O)N[C@H](CN2CCCC2)[C@H](O)c2ccc3c(c2)OCO3)cc1 [Compound 259],≤ 100 nM
4,COc1ccc([C@@H](O)[C@@H](CN2CCCC2)NC(=O)CCCOc2ccc(C(C)=O)cc2)cc1OC [Compound 278],> 10000 nM
5,CCCCCCCC(=O)N[C@H](CN1CCCC1)[C@H](OC)c1ccc2c(c1)OCCO2 [Compound 315],100 to 1000 nM

# Same assay, conditions: Table 3 (IC 50 Values); B16-FO cells; read-out: IC50_uM_Mean
row,Compound,IC50
1,CCCCCCOc1ccc([C@@H](O)[C@@H](CN2CC[C@H](O)C2)NC(=O)CCCCC(=O)c2ccc(OC)cc2)cc1 [Compound 368],≤ 100 nM
2,COc1ccc(OCCC(=O)N[C@H](CN2CCC[C@H]2C(F)(F)F)[C@H](O)c2ccc3c(c2)OCCO3)cc1 [Compound 542],3000 to 10000 nM
3,COc1ccc(C(=O)CCCCC(=O)N[C@H](CN2CC[C@H](O)C2)[C@H](O)c2ccc(OCCCCF)cc2)cc1 [Compound 495],≤ 100 nM
4,CCCCCCCC(=O)N[C@H](CN1C2CCC1CC2)[C@H](O)c1ccc2c(c1)OCCO2 [Compound 524],100 to 1000 nM
5,CCCCCCCC(=O)N[C@H](CN1C[C@@H]2CC[C@H]1C2)[C@H](O)c1ccc2c(c1)OCCO2 [Compound 545],100 to 1000 nM
6,O=C(CCCCOCC(F)(F)F)N[C@H](CN1CCCC1)[C@H](O)c1ccc(OCc2ccccc2)cc1 [Compound 647],100 to 1000 nM
7,O=C(N[C@H](CO)[C@H](O)c1ccc2c(c1)OC(F)(F)O2)OCc1ccccc1 [Compound 406],3000 to 10000 nM
8,CCCCCCCC(=O)N[C@H](CN1CC[C@@H](F)C1)[C@H](O)c1ccc2c(c1)OCCO2 [Compound 504],100 to 1000 nM
9,O=C(CCCCOC1CCOCC1)N[C@H](CN1CC[C@@H](F)C1)[C@H](O)c1ccc(OCc2ccccc2)cc1 [Compound 575],100 to 1000 nM
10,COCCc1ccc([C@@H](O)[C@@H](CN2CCCC2)NC(=O)CCCCCC(=O)c2ccc(OC)cc2)cc1 [Compound 479],≤ 100 nM
11,COc1ccc(C(=O)CCCCC(=O)N[C@H](CN2CC[C@H](O)C2)[C@H](O)c2ccc3c(c2)OCCO3)cc1 [Compound 655],100 to 1000 nM
12,O=C(N[C@H](CN1CCCC1)[C@H](O)c1ccc2c(c1)OC(F)(F)C(F)(F)O2)OCc1ccccc1 [Compound 399],1000 to 3000 nM
13,COc1ccc(OCCC(=O)N[C@H](CN2CC[C@H](O)C2)[C@H](O)c2ccc(OC(C)C)cc2)cc1 [Compound 447],≤ 100 nM
14,O=C(Cc1ccc(OC(F)(F)F)cc1)N[C@H](CN1CCCC1)[C@H](O)/C=C/c1ccccc1 [Compound 392],3000 to 10000 nM
15,CC(C)Oc1ccc([C@@H](O)[C@@H](CN2CC[C@@H](F)C2)NC(=O)Cc2ccc(-c3ccc(Cl)cc3)cc2)cc1 [Compound 446],≤ 100 nM
16,COc1ccc(C(=O)CCCCC(=O)N[C@H](CN2CCCC2)[C@H](O)c2ccc(OCCOc3cccc(C(F)(F)F)c3)cc2)cc1 [Compound 365],≤ 100 nM
17,O=C(CCCCCS(=O)(=O)C1CCCCC1)N[C@H](CN1CCCC1)[C@H](O)c1ccc2c(c1)OCCO2 [Compound 562],100 to 1000 nM
18,COc1ccc(C(=O)CCCCC(=O)N[C@H](CN2CCCC2)[C@H](O)c2sccc2C)cc1 [Compound 362],3000 to 10000 nM
19,COc1ccc(C(=O)CCCCCC(=O)N[C@@H](CN(C)C)[C@@H](O)c2ccc3c(c2)OCCO3)cc1 [Compound 469],100 to 1000 nM
20,CCCCCCCCCCCCCCCC(=O)N[C@H](CNCc1ccccc1)[C@H](O)c1ccc2c(c1)OCCO2 [Compound 678],3000 to 10000 nM
21,O=C(CCCN1Cc2ccccc2C1=O)N[C@H](CN1CCCC1)[C@H](O)c1ccc2c(c1)OCCO2 [Compound 485],3000 to 10000 nM

row,Compound,IC50
1,CCCCN(CCCC)C[C@@H](NC(=O)CCCCCC(=O)c1ccc(OC)cc1)C(O)c1ccc2c(c1)OCCO2 (stereo partly shown) [Compound 459],3000 to 10000 nM
2,CCCCCCCC(=O)N[C@H](CN1CCC(C)(C)C1)[C@H](O)c1ccc2c(c1)OCCO2 [Compound 521],3000 to 10000 nM
3,CCCN(C)C[C@H](NC(=O)CCCCCC(=O)c1ccc(OC)cc1)[C@@H](O)c1ccc2c(c1)OCCO2 [Compound 470],100 to 1000 nM
4,COc1ccc(OCCC(=O)N[C@H](CN2CCCC2(C)C)[C@H](O)c2ccc3c(c2)OCCO3)cc1 [Compound 551],3000 to 10000 nM
5,COc1ccc(C(=O)CCCCCC(=O)N[C@H](CNC2CCCCC2)[C@H](O)c2ccc3c(c2)OCCO3)cc1 [Compound 458],3000 to 10000 nM
6,CCCCOc1ccc([C@@H](O)[C@@H](CN2CC[C@H](O)C2)NC(=O)CCCCCCCOC)cc1 [Compound 586],≤ 100 nM
7,COc1ccc(C(=O)CCCCCC(=O)N[C@H](CN2CCC[C@@H]2C)[C@@H](O)c2ccc3c(c2)OCCO3)cc1 [Compound 525],≤ 100 nM
8,COc1ccc(C(=O)CCCC(=O)N[C@H](CN2CCCC2)[C@H](O)c2ccc(C(F)(F)F)cc2)cc1 [Compound 490],3000 to 10000 nM
9,COc1ccc([C@@H](O)[C@@H](CN2CCCC2)NC(=O)Cc2ccc(OC(F)(F)F)cc2)cc1F [Compound 342],100 to 1000 nM
10,COc1ccc([C@@H](O)[C@@H](CN2CCCC2)NC(=O)CCCCCC(C)=O)cc1 [Compound 664],1000 to 3000 nM
11,COc1ccc(C(=O)CCCCCC(=O)N[C@H](CCN2CCCC2)[C@H](O)c2ccc3c(c2)OCCO3)cc1 [Compound 688],3000 to 10000 nM
12,O=C(CC1CCOCC1)N[C@H](CN1CCCC1)[C@H](O)c1ccc2c(c1)OCCO2 [Compound 580],3000 to 10000 nM
13,O=C(CCCOc1ccc(F)cc1)N[C@@H](CN1C2CCC1CC2)C(O)c1ccc2c(c1)OCCO2 (stereo partly shown) [Compound 472],100 to 1000 nM
14,O=C(CCCC#CC1(O)CCCCC1)N[C@H](CN1CCCC1)[C@H](O)c1ccc2c(c1)OCCO2 [Compound 631],3000 to 10000 nM
15,CCCOC1CC(C[C@@H](NC(=O)CCOc2ccc(OC)cc2)[C@H](O)c2ccc3c(c2)OCCO3)C1 (stereo partly shown) [Compound 597],3000 to 10000 nM
16,CCCCCCCC(=O)N[C@@H](CN1CCCC1)[C@H](O)c1ccc2c(c1)OCCO2 [Compound 672],3000 to 10000 nM
17,COc1ccc(OCCC(=O)N[C@H](CN2CCC2)[C@H](O)c2ccc3c(c2)OCCO3)cc1 [Compound 599],1000 to 3000 nM
18,COCCOc1ccc(C(=O)CCCC(=O)N[C@H](CN2CC[C@H](O)C2)[C@H](O)c2ccc(OCCCCF)cc2)cc1 [Compound 457],≤ 100 nM
19,COc1ccc(C(=O)CCCCC(=O)N[C@H](CN2CCCC2)[C@H](O)c2ccccc2OC)cc1 [Compound 698],100 to 1000 nM
20,COc1ccc(C(=O)CCCCCC(=O)N[C@@H](CN(C)C(C)C)[C@@H](O)c2ccc3c(c2)OCCO3)cc1 [Compound 468],≤ 100 nM
21,O=C(CCCCCC1CCOCC1)N[C@H](CN1CC[C@@H](F)C1)C(O)c1cccc(OCc2ccccc2)c1 (stereo partly shown) [Compound 574],100 to 1000 nM
